Data taken from patent US20210267944A1 (BioXcel Therapeutics, Inc., priority 2018, published 2021).
Structures can show the parent of a compound that is named as a salt. Where two headings read alike, the source gives them in different places.

Assays:
[1] = test system: subjects suffering from opiate withdrawal symptoms;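 also: inpatients in opioid withdrawal given intravenous infusion titrated upward every 30 min (up to 0.1 mcg/kg/hr steps) until COWS total, a clinician-rated 11-item withdrawal scale, fell by half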
Procedure: All participants were screened for inclusion and exclusion criteria at screening. The participants were admitted to the site of the day on screening and after 8-12 hours discontinuation of opiates in order to achieve mild to moderate withdrawal. Baseline assessments were performed on the day of admission (Screening), as well as on the day of infusion (Day 1), which was followed by preparation for infusion, the infusion (up to 3 hours) and time necessary for resolution of withdrawal symptoms as defined as a 50% reduction in COWS total score and any decreases in blood pressure or heart rate which meet stopping criteria. A second infusion was given on the next day. The stopping criteria and assessment scheduled remained the same for the second infusion as for the initial infusion.
In addition to the above attainment of a 50% reduction in COWS total score, dosing was stopped for safety reasons at any time if any of the following occurred: • a. drop in systolic BP<90 mm of Hg. • b. drop in diastolic BP<60 mm of Hg • c. drop in heart rate below 50 beats per minute • d. RASS score of −1
The dose was increased by up to 0.1 mcg/kg/hr if the desired level of sedation was not achieved by the end of 30 minutes of infusion of the prior dose. The infusion was continued for up to 2.5 hours up to the maximum dose. In no instance was the infusion rate exceed 1.0 mcg/kg/hr and the maximum total dose administered was capped to 1.6 mcg/kg/hr for any participant.

clinical = conditions: human, in vivo; for concentration at 15 min / concentration at 30 min / concentration at 90 min / concentration at 45 min / concentration at 60 min / concentration at 75 min: Plasma level concentration

Cc1cccc([C@H](C)c2cnc[nH]2)c1C [dexmedetomidine hydrochloride]
COW score ([1]; Day 2, Patient OP-1 (Treatment), 00:30 Hr): 2
COW score ([1]; Day 2, Patient OP-1 (Treatment), last cell, 30 min. post Infusion): 0
COW score ([1]; Day 2, Patient OP-2 (Treatment), 00:00 Hr): 14
COW score ([1]; Day 2, Patient OP-2 (Treatment), 00:15 Hr): 11
COW score ([1]; Day 2, Patient OP-2 (Treatment), 00:30 Hr): 12
COW score ([1]; Day 2, Patient OP-2 (Treatment), 00:45 Hr): 10
COW score ([1]; Day 2, Patient OP-2 (Treatment), 01:00 Hr): 9
COW score ([1]; Day 2, Patient OP-2 (Treatment), 01:15 Hr): 7
COW score ([1]; Day 2, Patient OP-2 (Treatment), last cell, 30 min. post Infusion): 4
COW score ([1]; Day 2, Patient OP-3 (Treatment), 00:00 Hr): 10
COW score ([1]; Day 2, Patient OP-3 (Treatment), 00:15 Hr): 8
COW score ([1]; Day 2, Patient OP-3 (Treatment), 00:30 Hr): 6
COW score ([1]; Day 2, Patient OP-3 (Treatment), 00:45 Hr): 4
COW score ([1]; Day 2, Patient OP-3 (Treatment), last cell, 30 min. post Infusion): 4
COW score ([1]; Day 2, Patient OP-9 (Treatment), 00:30 Hr): 14
COW score ([1]; Day 2, Patient OP-9 (Treatment), 00:45 Hr): 14
COW score ([1]; Day 2, Patient OP-9 (Treatment), 01:00 Hr): 14
COW score ([1]; Day 2, Patient OP-9 (Treatment), 01:15 Hr): 12
COW score ([1]; Day 2, Patient OP-9 (Treatment), 01:30 Hr): 12
COW score ([1]; Day 2, Patient OP-9 (Treatment), 01:45 Hr): 12
COW score ([1]; Day 2, Patient OP-9 (Treatment), 02:00 Hr): 9
COW score ([1]; Day 2, Patient OP-9 (Treatment), last cell, 30 min. post Infusion): 9
COW score ([1]; Day 2, Patient OP-17 (Treatment), 00:00 Hr): 14
COW score ([1]; Day 2, Patient OP-17 (Treatment), 00:15 Hr): 14
COW score ([1]; Day 2, Patient OP-17 (Treatment), 00:30 Hr): 12
COW score ([1]; Day 2, Patient OP-17 (Treatment), 00:45 Hr): 11
COW score ([1]; Day 2, Patient OP-17 (Treatment), 01:00 Hr): 5
COW score ([1]; Day 2, Patient OP-17 (Treatment), last cell, 30 min. post Infusion): 5
Efficacy (Primary/secondary end points): subjects with COWS greater than or equal to 50% reduction ([1]; Opioid withdrawal Study): 11/11 COWS
Range of efficacious dose of IV dexmedetomidine hydrochloride ([1]; Opioid withdrawal Study, continuous infusion): 0.2 to 0.7 µg/kg/h
effect on physiological symptoms of opioid withdrawal (COWS) ([1]; opioid withdrawal): effectively mitigated the physiological symptoms of opioid withdrawal
subjects who achieved 50% reduction in COW score ([1]; opioid withdrawal, Day 1): 10 out of 10
optimal dose at 50% of the COW score achieved, Max ([1]; opioid withdrawal, Day 1, n=10): 0.4 µg/kg/h
optimal dose at 50% of the COW score achieved, Mean ± Sd (mean infusion rate) ([1]; opioid withdrawal, Day 1, n=10): 0.29 µg/kg/h
optimal dose at 50% of the COW score achieved, Median ([1]; opioid withdrawal, Day 1, n=10): 0.3 µg/kg/h
optimal dose at 50% of the COW score achieved, Min ([1]; opioid withdrawal, Day 1, n=10): 0.2 µg/kg/h
optimal dose at 50% of the COW score achieved, Mean ± Sd (mean infusion rate) ([1]; opioid withdrawal, Day 1, n=10, listed as Test): 0.29 ± 0.08 µg/kg/h
patients in the treatment arm who achieved 50% reduction in COW score ([1]; opioid withdrawal, Day 2): 5 out of 5
optimal dose at 50% of the COW score achieved, Max ([1]; opioid withdrawal, Day 2, n=5): 0.7 µg/kg/h
optimal dose at 50% of the COW score achieved, Mean ± Sd (mean infusion rate) ([1]; opioid withdrawal, Day 2, n=5): about 0.44 mcg/kg/hr
optimal dose at 50% of the COW score achieved, Median ([1]; opioid withdrawal, Day 2, n=5): 0.4 µg/kg/h
optimal dose at 50% of the COW score achieved, Min ([1]; opioid withdrawal, Day 2, n=5): 0.2 µg/kg/h
optimal dose at 50% of the COW score achieved, Mean ± Sd (mean infusion rate) ([1]; opioid withdrawal, Day 2, n=5, listed as Test): 0.44 ± 0.16 µg/kg/h
Cmax (clinical): 0.0225 to 0.406 ng/mL
concentration at 15 min (clinical; Patient 1, Treatment, 15 min of infusion): 0.0225 ng/mL
concentration at 30 min (clinical; Patient 1, Treatment): 0.0147 ng/mL
concentration at 90 min (clinical; Patient 4, Treatment): 0.0443 ng/mL
concentration at 15 min (clinical; Patient 11, Treatment, 15 min): 0.041 ng/mL
concentration at 30 min (clinical; Patient 11, Treatment): 0.0629 ng/mL
concentration at 45 min (clinical; Patient 11, Treatment): 0.124 ng/mL
concentration at 60 min (clinical; Patient 11, Treatment): 0.15 ng/mL
concentration at 30 min (clinical; Patient 12, Treatment): 0.0449 ng/mL
concentration at 45 min (clinical; Patient 12, Treatment): 0.0505 ng/mL
concentration at 60 min (clinical; Patient 12, Treatment): 0.109 ng/mL
concentration at 75 min (clinical; Patient 12, Treatment): 0.159 ng/mL
concentration at 90 min (clinical; Patient 12, Treatment): 0.238 ng/mL
concentration at 30 min (clinical; Patient 14, Treatment): 0.0527 ng/mL
concentration at 45 min (clinical; Patient 14, Treatment): 0.0465 ng/mL
concentration at 60 min (clinical; Patient 14, Treatment): 0.406 ng/mL
concentration at 15 min (clinical; Patient 16, Treatment, 15 min): 0.00256 ng/mL
concentration at 30 min (clinical; Patient 16, Treatment): 0.0156 ng/mL
concentration at 45 min (clinical; Patient 16, Treatment): 0.0412 ng/mL
concentration at 60 min (clinical; Patient 16, Treatment): 0.0679 ng/mL
concentration at 75 min (clinical; Patient 16, Treatment): 0.0723 ng/mL
concentration at 15 min (clinical; Patient 17, Treatment, 15 min): 0.0159 ng/mL
concentration at 45 min (clinical; Patient 17, Treatment): 0.0399 ng/mL
concentration at 15 min (clinical; Patient 18, Treatment, 15 min): 0.0484 ng/mL
concentration at 30 min (clinical; Patient 18, Treatment): 0.0545 ng/mL
